# Results: US20230102836A1, “Amoebicidal Compositions for Contact Lens Solutions” (University of the West of Scotland, priority 2019, published 2023)
# Tested on: gDNA from A. castellanii
# Experiment: QAC-DNA interaction assay
# Type: binding, Acanthamoeba castellanii
# Settings: DNA:QAC ratios 1:0, 1:1, 1:10, 1:20; 15 min
# Method: FIGS. 3A and 3B show the QAC-DNA interaction. The absorbance of genomic DNA (0.6 ng/ml) extracted from A. castellani trophozoites measured at 260 nm with the Nanodrop after incubating for 15 minutes with 0 ng/ml, 0.6 ng/ml, 6 ng/ml or 12 ng/ml of QAC12 (FIG. 3A) or QAC16 (FIG. 3B) to give ratios of 1:0, 1:1, 1:10 and 1:20. DNA absorbance increased and decreased with increased […] and [QAC12] respectively. Data is mean absorbance at 260 nm±SD; n=4 independent experiments performed in triplicates.
# Genomic deoxynucleic acids (gDNA) from 10^8 A. castellanii trophozoites (treated with and without QAC) were extracted from cells harvested by centrifugation (850×g, 10 min), lysed with UNSET buffer (8M urea, […] NaCl, 2% SDS, […] ethylenediaminetetraacetic acid (EDTA), […] Tris-HCl, pH 7.5) and the DNA extracted with phenol-chloroform (1:1 v/v). The biphasic suspension with DNA enriched on the […] was centrifuged (12,000×g for 15 min, 4° C.) for clear separation and transferred to a new microcentrifuge tube. The DNA was precipitated with cold ethanol (100%, v/v) and 0.3M sodium acetate, washed twice with 70% (v/v) ethanol (12,000×g for 10 min, 4° C.), air dried and resuspended in distilled water. […]
smiles,measurement,value
"CCCCCCCCCCCCCCCCCC[N+](C)(C)C.[Br-] [QAC18, octadecyltrimethyl ammonium bromide]",Change of gDNA absorbance at 260 nm with increasing QAC,progressively increased absorbance
